US8669257B2, “Phenazine derivatives and uses thereof as potassium channel modulators” (The Johns Hopkins University, priority 2007, dated 2014)

Legend:
NFAT luciferase reporter = NFAT luciferase reporter assay in Jurkat T-cells; format: cell-based; settings: Homo sapiens, PMA/ionomycin, FIG. 1C, n=6
[1] = tested on: endogenous NFATc2 dephosphorylation; test: Dephosphorylation of endogenous NFATc2 in Jurkat T-cells (Western blot); format: cell-based, human; settings: ionomycin treatment
Experimental: Jurkat T-cells were pretreated with indicated compounds for 1 h before 3 μM (final concentration) ionomycin was added. Cells were harvested after 30 min and lysed in a lysis buffer [40 mM Tris (pH 7.8), 1% NP-40, 10 mM EDTA, 60 mM […] and common protease inhibitors] by sonication. NFATc2 was resolved by 8% SDS-PAGE followed by Western blot analysis using anti-NFAT antibodies (Santa-cruz Sc-7296, 1:100 dilution).

[2] = tested on: calcium oscillation in Jurkat T-cells; test: Calcium oscillation in Jurkat T-cells (10 nM TG); format: cell-based, human; settings: for cells with elongated calcium oscillation period: 10 nM TG, Jurkat T-cells
Experimental: JurkaT-cells were attached to L-lysine-coated glass dishes (MatTek). Cells were loaded with fura-2-AM (Invitrogen_F-1201) for 45 min before they were washed sequentially with growth medium and Ca^2+-free HBSS. Fluorescence excitation wavelengths were set at 350 and 380 nm, respectively, on a Zeiss Axiovert 200M microscope while emission wavelength was set at 510 nm. Changes in intracellular calcium concentrations were determined by fluorescence intensity ratio ([…]/F380).

human Kv1.5 = biological target: T1, human Kv1.5 (Homo sapiens, UniProt P22460); test: Patch-clamp of heterologous human Kv1.5 expressed in MEL cells; format: cell-based
T1 construct: expressed in transfected cells; host or cells: MEL cells
Experimental: Patch pipettes, pulled from glass capillaries (inner diameter 1.5 mm, Kimble products) with a horizontal puller (Sutter instruments, Modell P-97), were fire-polished, and had resistances between 2 and 4 MOhm. Patch-clamp experiments were performed in the tight-seal whole-cell configuration at room temperature (22-24° C.). High-resolution current recordings were acquired by a computer-based patch-clamp amplifier system (EPC-9, HEKA). Immediately following establishment of the whole-cell configuration, every two seconds voltage ramps of 50 ms duration spanning the voltage range of −100 to +100 mV for Jurkat T-cells and −150 to +150 mV for HEK293 were delivered from a holding potential (Vh) of −70 mV for Jurkats and 0 mV for HEK293 cells over a period of 300-600 s. […] Capacitive currents and series resistance were determined and corrected before each voltage ramp using the automatic capacitance compensation of the EPC-9. […] Kv1.3 currents in Jurkat T-cells were measured at +80 mV. Heterologously expressed Kv1.1, Kv1.2, Kv1.3, Kv1.5 and Kv3.1 were assessed at +80 mV except in Figure S7, where currents were additionally measured at the more physiological voltage of 0 mV. CRAC currents in HEK293 cells were assessed at −80 mV. […]

T1 sequence (P22460 whole entry): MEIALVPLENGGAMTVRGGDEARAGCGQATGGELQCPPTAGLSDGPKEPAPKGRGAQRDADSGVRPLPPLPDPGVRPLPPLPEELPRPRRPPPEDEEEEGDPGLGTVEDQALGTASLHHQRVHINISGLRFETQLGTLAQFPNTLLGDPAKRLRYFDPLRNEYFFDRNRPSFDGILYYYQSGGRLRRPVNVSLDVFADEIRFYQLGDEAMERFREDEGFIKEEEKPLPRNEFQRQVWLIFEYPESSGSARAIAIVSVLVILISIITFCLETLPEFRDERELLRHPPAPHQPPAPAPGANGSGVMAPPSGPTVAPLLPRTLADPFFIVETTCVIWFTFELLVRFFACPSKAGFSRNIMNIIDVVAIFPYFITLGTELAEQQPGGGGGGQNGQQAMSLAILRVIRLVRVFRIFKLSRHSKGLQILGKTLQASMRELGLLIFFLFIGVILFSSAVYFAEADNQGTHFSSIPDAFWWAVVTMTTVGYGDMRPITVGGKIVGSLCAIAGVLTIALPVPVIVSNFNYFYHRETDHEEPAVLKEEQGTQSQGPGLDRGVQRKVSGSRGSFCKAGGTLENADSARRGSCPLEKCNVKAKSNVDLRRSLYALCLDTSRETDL

CC(C)/N=c1\cc2n(-c3ccc(Cl)cc3)c3ccccc3nc-2cc1Nc1ccc(Cl)cc1 [clofazimine, Clofazimine]
IC50 (NFAT luciferase reporter): 113 ± 30 nM | effect on dephosphorylation of endogenous NFATc2 [1]: inhibited ionomycin-induced dephosphorylation of NFATc2 in a dose-dependent manner | effect on dephosphorylation of endogenous NFATc2 ([1]; listed as Clofazimine): inhibits dephosphorylation | cells with elongated calcium oscillation period [2]: Over 80% | cells with elongated calcium oscillation period ([2]; listed as Clofazimine): more than 80% | effect on calcium oscillation pattern ([2]; low concentration of thapsigargin): decreased the amplitude and increased the period | block of current, human Kv1.5 (human Kv1.5; 10 μM): less than 50% | IC50 (human Kv1.5; inferred from block at 10 μM): > 10000 nM
